This note sets out measurements from patent US20220211704A1, “INHIBITORS OF HUMAN IMMUNODEFICIENCY VIRUS REPLICATION” (VIIV HEALTHCARE UK (No. 5) LIMITED, priority 2019, published 2022).

In series [1] the test system is recombinant NL4-3 virus. The series is described as follows: HIV cell culture assay (Renilla luciferase reporter virus in MT-2 cells). It counts as cell-based. As to conditions: Human immunodeficiency virus 1, NL43, MT2. Here is the method: HIV cell culture assay—MT-2 cells, 293T cells and the proviral DNA clone of NL4-3 virus were obtained from the NIH AIDS Research and Reference Reagent Program. MT-2 cells were propagated in RPMI 1640 media supplemented with 10% heat inactivated fetal bovine serum (FBS), […]. The 293T cells were propagated in DMEM media supplemented with 10% heat inactivated FBS, […]. A recombinant NL4-3 proviral clone, in which a section of the nef gene was replaced with the Renilla luciferase gene, was used to make the reference virus used in these studies. The recombinant virus was prepared through transfection of the recombinant NL4-3 proviral clone into 293T cells using Transit-293 Transfection Reagent from Mirus Bio LLC (Madison, Wis.). Supernatent was harvested after 2-3 days and the amount of virus present was titered in MT-2 cells using luciferase enzyme activity as a marker by measuring luciferase enzyme activity. Luciferase was quantitated using the EnduRen Live Cell Substrate from Promega (Madison, Wis.). Antiviral activities of compounds toward the recombinant virus were quantified by measuring luciferase activity in MT-2 cells infected for 4-5 days with the recombinant virus in the presence of serial dilutions of the compound. […]

A short description of series [2]: Compound cytotoxicity, XTT-based colorimetric assay. It counts as cell-based. As to conditions: human; uninfected MT2 cells, day 4, XTT. How it is done:
Compound cytotoxicity and the corresponding CC50 values were determined using the same protocol as described in the antiviral assay except that uninfected cells were used. Cytotoxicity was assessed on day 4 in uninfected MT2 cells by using an XTT (2,3-bis[2-Methoxy-4-nitro-5-sulfophenyl]-2H-tetrazolium-5-carboxyanilide inner salt)-based colorimetric assay (Sigma-Aldrich, St Louis, Mo.).

In the case of `Cn1nc(NS(C)(=O)=O)c2c(Cl)ccc(-n3c([C@H](Cc4cc(F)cc(F)c4)NC(=O)Cn4nc(C(F)F)c5c4C(F)(F)C4CC54)nc4cc(C#CC(C)(C)S(C)(=O)=O)ccc4c3=O)c21` (stereo in doubt) [Example 1, N—((S)-1-(3-(4-chloro-1-methyl-3-(methylsulfonamido)-1H-indazol-7-yl)-7-(3-methyl-3-(methylsulfonyl)but-1-yn-1-yl)-4-oxo-3,4-dihydroquinazolin-2-yl)-2-(3,5-difluorophenyl)ethyl)-2-((3bS,4aR)-3-(difluoromethyl)-5,5-difluoro-3b,4,4a,5-tetrahydro-1H-cyclopropa[3,4]cyclopenta[1,2-c]pyrazol-1-yl)acetamide], the EC50 in series [1] is 0.035 nM. This molecule also had a CC50 at 4 day in series [2] of over 500 nM.
Regarding `CC(C)(C#Cc1ccc2c(=O)n(-c3ccc(Cl)c4c(NS(=O)(=O)C5CC5)nn(CC(F)F)c34)c([C@H](Cc3cc(F)cc(F)c3)NC(=O)Cn3nc(C(F)F)c4c3C(F)(F)C3CC43)nc2c1)S(C)(=O)=O` (stereo in doubt) [Example 2, N—((S)-1-(3-(4-chloro-3-(cyclopropanesulfonamido)-1-(2,2-difluoroethyl)-1H-indazol-7-yl)-7-(3-methyl-3-(methylsulfonyl)but-1-yn-1-yl)-4-oxo-3,4-dihydroquinazolin-2-yl)-2-(3,5-difluorophenyl)ethyl)-2-((3bS,4aR)-3-(difluoromethyl)-5,5-difluoro-3b,4,4a,5-tetrahydro-1H-cyclopropa[3,4]cyclopenta[1,2-c]pyrazol-1-yl)acetamide], the EC50 in series [1] was determined as 0.047 nM. For the same molecule, the CC50 at 4 day in series [2] was over 500 nM.
